Where “and” joins values, the source holds several entries; their conditions need not be identical. Equal entries are not always repeated.
System: 362531-283-R-J2-PDC complex spheroid viability
Test: Anticancer human tumor 362531-283-R-J2-PDC patient-derived colon adenocarcinoma cell line growth inhibition [RAS]
Details: for viability, T/C: stronger effect = lower value
How it was run: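 Multi-cell-type spheroids: tumor cells plus HUVEC endothelial cells and mesenchymal stem cells. RAS-pathway inhibitors were combined with targeted agents, each dosed in half-log steps down from clinical Cmax, or from 10 microM when Cmax was unknown.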

[1] = curve of first compound, second compound 0.00316 µM
[2] = curve of first compound, second compound 0.01 µM
[3] = curve of first compound, second compound 0.0316 µM
[4] = curve of first compound, second compound 0.1 µM
[5] = curve of first compound, second compound 0.316 µM
[6] = curve of first compound, second compound 1 µM
[7] = second compound 0.00316 µM, first compound 0.0316 µM
[8] = second compound 0.00316 µM, first compound 0.1 µM
[9] = second compound 0.01 µM, first compound 0.0316 µM
[10] = second compound 0.01 µM, first compound 0.1 µM
[11] = second compound 0.0316 µM, first compound 0.0316 µM
[12] = second compound 0.0316 µM, first compound 0.1 µM
[13] = second compound 0.1 µM, first compound 0.0316 µM
[14] = second compound 0.1 µM, first compound 0.1 µM
[15] = second compound 0.316 µM, first compound 0.0316 µM
[16] = second compound 0.316 µM, first compound 0.1 µM
[17] = second compound 1 µM, first compound 0.0316 µM
[18] = second compound 1 µM, first compound 0.1 µM
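Also: spheroids exposed to the agents for 7 days before readout.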
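For viability, T/C in this document: luminescence viability as percent of DMSO vehicle control wells.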

`CC(C)n1nc(-c2ccc3oc(N)nc3c2)c2c(N)ncnc21` + C=CC(=O)N1CCN(c2nc(OCC3CCCN3C)nc3c(F)c(-c4nc(N)cc(C)c4C(F)(F)F)c(Cl)cc23)C(C)C1 showed an IC50 [1] of over 100 nM, an IC50 [2] of over 100 nM and an IC50 [3] of over 100 nM. The IC50 [4] was over 100 nM, the IC50 [5] was over 100 nM and the IC50 [6] was over 100 nM. For the same compound, the viability, T/C (second compound 0.00316 µM, first compound 0.000316 µM) was 97.8%, the viability, T/C (second compound 0.00316 µM, first compound 0.001 µM) was 91.8% and the viability, T/C (second compound 0.00316 µM, first compound 0.00316 µM) was 101%. It also gave a viability, T/C (second compound 0.00316 µM, first compound 0.01 µM) of 89.2%, a viability, T/C [7] of 62.9% and a viability, T/C [8] of 97.1%. For the same compound, the viability, T/C (second compound 0.01 µM, first compound 0.000316 µM) was 93.5%, the viability, T/C (second compound 0.01 µM, first compound 0.001 µM) was 92.2% and the viability, T/C (second compound 0.01 µM, first compound 0.00316 µM) was 105%. It also gave a viability, T/C (second compound 0.01 µM, first compound 0.01 µM) of 87.3%, a viability, T/C [9] of 54.9% and a viability, T/C [10] of 89.7%. For the same compound, the viability, T/C (second compound 0.0316 µM, first compound 0.000316 µM) was 100%, the viability, T/C (second compound 0.0316 µM, first compound 0.001 µM) was 95.9% and the viability, T/C (second compound 0.0316 µM, first compound 0.00316 µM) was 102%. The viability, T/C (second compound 0.0316 µM, first compound 0.01 µM) was 80.7%, the viability, T/C [11] was 65.9% and the viability, T/C [12] was 101%. The viability, T/C (second compound 0.1 µM, first compound 0.000316 µM) was 91.9%, the viability, T/C (second compound 0.1 µM, first compound 0.001 µM) was 93.1% and the viability, T/C (second compound 0.1 µM, first compound 0.00316 µM) was 99.6%. It also gave a viability, T/C (second compound 0.1 µM, first compound 0.01 µM) of 87%, a viability, T/C [13] of 86.2% and a viability, T/C [14] of 64.5%. For the same compound, the viability, T/C (second compound 0.316 µM, first compound 0.000316 µM) was 107%, the viability, T/C (second compound 0.316 µM, first compound 0.001 µM) was 106% and the viability, T/C (second compound 0.316 µM, first compound 0.00316 µM) was 104%. For the same compound, the viability, T/C (second compound 0.316 µM, first compound 0.01 µM) was 106%, the viability, T/C [15] was 68.2% and the viability, T/C [16] was 82.7%. For the same compound, the viability, T/C (second compound 1 µM, first compound 0.000316 µM) was 107%, the viability, T/C (second compound 1 µM, first compound 0.001 µM) was 105% and the viability, T/C (second compound 1 µM, first compound 0.00316 µM) was 97%. The viability, T/C (second compound 1 µM, first compound 0.01 µM) was 107%, the viability, T/C [17] was 49.6% and the viability, T/C [18] was 81.5%.

Work on `CC(Nc1ccc2c(c1)OCCn1cc(N3C(=O)OCC3C(F)F)nc1-2)C(N)=O` (stereo unspecified) + C=CC(=O)N1CCN(c2nc(OCC3CCCN3C)nc3c(F)c(-c4nc(N)cc(C)c4C(F)(F)F)c(Cl)cc23)C(C)C1 yielded an IC50 [1] of 549 nM, an IC50 [2] of 928 nM and an IC50 [3] of 666 nM. It also gave an IC50 [4] of 810 nM, an IC50 [5] of 839 nM and an IC50 [6] of 808 nM. The viability, T/C [7] was 96.6%, the viability, T/C [8] was 78.6% and the viability, T/C (second compound 0.00316 µM, first compound 0.316 µM) was 54.5%. For the same compound, the viability, T/C (second compound 0.00316 µM, first compound 1 µM) was 46.1%, the viability, T/C (second compound 0.00316 µM, first compound 3.16 µM) was 39.1% and the viability, T/C (second compound 0.00316 µM, first compound 10 µM) was 42.7%. For the same compound, the viability, T/C [9] was 97.4%, the viability, T/C [10] was 86.2% and the viability, T/C (second compound 0.01 µM, first compound 0.316 µM) was 70.2%. It also gave a viability, T/C (second compound 0.01 µM, first compound 1 µM) of 46.8%, a viability, T/C (second compound 0.01 µM, first compound 3.16 µM) of 38.3% and a viability, T/C (second compound 0.01 µM, first compound 10 µM) of 30.3%. For the same compound, the viability, T/C [11] was 87.4%, the viability, T/C [12] was 84.4% and the viability, T/C (second compound 0.0316 µM, first compound 0.316 µM) was 63.7%. It also gave a viability, T/C (second compound 0.0316 µM, first compound 1 µM) of 43.5%, a viability, T/C (second compound 0.0316 µM, first compound 3.16 µM) of 33.3% and a viability, T/C (second compound 0.0316 µM, first compound 10 µM) of 43.4%. For the same compound, the viability, T/C [13] was 95.9%, the viability, T/C [14] was 92.5% and the viability, T/C (second compound 0.1 µM, first compound 0.316 µM) was 71.7%. For the same compound, the viability, T/C (second compound 0.1 µM, first compound 1 µM) was 44.2%, the viability, T/C (second compound 0.1 µM, first compound 3.16 µM) was 35.4% and the viability, T/C (second compound 0.1 µM, first compound 10 µM) was 27.4%. The viability, T/C [15] was 107%, the viability, T/C [16] was 88% and the viability, T/C (second compound 0.316 µM, first compound 0.316 µM) was 68.8%. The viability, T/C (second compound 0.316 µM, first compound 1 µM) was 47.9%, the viability, T/C (second compound 0.316 µM, first compound 3.16 µM) was 31.9% and the viability, T/C (second compound 0.316 µM, first compound 10 µM) was 35.8%. The viability, T/C [17] was 94.8%, the viability, T/C [18] was 95.6% and the viability, T/C (second compound 1 µM, first compound 0.316 µM) was 72%. For the same compound, the viability, T/C (second compound 1 µM, first compound 1 µM) was 46.6%, the viability, T/C (second compound 1 µM, first compound 3.16 µM) was 31.8% and the viability, T/C (second compound 1 µM, first compound 10 µM) was 35%.

In the case of `CC1(O)CCCC1n1c(=O)c(C(F)F)cc2cnc(NC3CCN(S(C)(=O)=O)CC3)nc21` (stereo unspecified), the viability, T/C (compound 0.0316 µM) is reported as 103% (2×) and 94% and 97.4%, the viability, T/C (compound 0.1 µM) is reported as 104% [middle of 4 runs] and the viability, T/C (compound 0.316 µM) is reported as 89.9% [middle of 4 runs]. The viability, T/C (compound 3.16 µM) was 68.3% [middle of 4 runs] and the IC50 (curve of compound) was > 10000 nM and 9270 nM and 6010 nM.

Work on `Cc1nc(N2CCC3(CC2)COC(C)C3N)c(CO)nc1Sc1ccnc(N)c1Cl` (stereo unspecified) + CCn1c(-c2cccnc2C(C)OC)c2c3cc(ccc31)N1CCOC(CC(NC(=O)C(C(C)C)N(C)C(=O)C3(F)CCN(C(=O)C#CC(C)(C)N(C)C)CC3)C(=O)N3CCCC(N3)C(=O)OCC(C)(C)C2)C1 yielded an IC50 (curve of first compound, second compound 0.000949 µM) of over 10000 nM, an IC50 (curve of first compound, second compound 0.003 µM) of over 10000 nM and an IC50 (curve of first compound, second compound 0.00949 µM) of over 10000 nM. It also gave an IC50 (curve of first compound, second compound 0.03 µM) of over 10000 nM, an IC50 (curve of first compound, second compound 0.0949 µM) of over 10000 nM and an IC50 (curve of first compound, second compound 0.3 µM) of over 10000 nM. It also gave a viability, T/C (second compound 0.000949 µM, first compound 0.0316 µM) of 103%, a viability, T/C (second compound 0.000949 µM, first compound 0.1 µM) of 103% and a viability, T/C (second compound 0.000949 µM, first compound 0.316 µM) of 93%. The viability, T/C (second compound 0.000949 µM, first compound 1 µM) was 102%, the viability, T/C (second compound 0.000949 µM, first compound 3.16 µM) was 80.6% and the viability, T/C (second compound 0.000949 µM, first compound 10 µM) was 72%. For the same compound, the viability, T/C (second compound 0.003 µM, first compound 0.0316 µM) was 111%, the viability, T/C (second compound 0.003 µM, first compound 0.1 µM) was 103% and the viability, T/C (second compound 0.003 µM, first compound 0.316 µM) was 103%. For the same compound, the viability, T/C (second compound 0.003 µM, first compound 1 µM) was 86.7%, the viability, T/C (second compound 0.003 µM, first compound 3.16 µM) was 87.3% and the viability, T/C (second compound 0.003 µM, first compound 10 µM) was 71.1%. For the same compound, the viability, T/C (second compound 0.00949 µM, first compound 0.0316 µM) was 102%, the viability, T/C (second compound 0.00949 µM, first compound 0.1 µM) was 111% and the viability, T/C (second compound 0.00949 µM, first compound 0.316 µM) was 92.1%. The viability, T/C (second compound 0.00949 µM, first compound 1 µM) was 93.3%, the viability, T/C (second compound 0.00949 µM, first compound 3.16 µM) was 82.4% and the viability, T/C (second compound 0.00949 µM, first compound 10 µM) was 77.7%. For the same compound, the viability, T/C (second compound 0.03 µM, first compound 0.0316 µM) was 102%, the viability, T/C (second compound 0.03 µM, first compound 0.1 µM) was 108% and the viability, T/C (second compound 0.03 µM, first compound 0.316 µM) was 95.5%. The viability, T/C (second compound 0.03 µM, first compound 1 µM) was 89.9%, the viability, T/C (second compound 0.03 µM, first compound 3.16 µM) was 82.5% and the viability, T/C (second compound 0.03 µM, first compound 10 µM) was 66.4%. For the same compound, the viability, T/C (second compound 0.0949 µM, first compound 0.0316 µM) was 105%, the viability, T/C (second compound 0.0949 µM, first compound 0.1 µM) was 94.9% and the viability, T/C (second compound 0.0949 µM, first compound 0.316 µM) was 96.7%. It also gave a viability, T/C (second compound 0.0949 µM, first compound 1 µM) of 77.5%, a viability, T/C (second compound 0.0949 µM, first compound 3.16 µM) of 85.6% and a viability, T/C (second compound 0.0949 µM, first compound 10 µM) of 74.7%. For the same compound, the viability, T/C (second compound 0.3 µM, first compound 0.0316 µM) was 94.8%, the viability, T/C (second compound 0.3 µM, first compound 0.1 µM) was 117% and the viability, T/C (second compound 0.3 µM, first compound 0.316 µM) was 94.2%. The viability, T/C (second compound 0.3 µM, first compound 1 µM) was 87.4%, the viability, T/C (second compound 0.3 µM, first compound 3.16 µM) was 76.7% and the viability, T/C (second compound 0.3 µM, first compound 10 µM) was 64.9%.
